# Patent US11820766B2, “Monoacylglycerol lipase modulators” (Janssen Pharmaceutica NV, priority 2018, dated 2023)
# Target: T1, human MGL from HeLa cells (Homo sapiens, UniProt Q99685)
# T1 construct: combining endogenously expressed MGL from HeLa cells with test compounds; endogenous in cells; host or cells: HeLa cells / cell homogenates
# T1 sequence (Q99685 1-303): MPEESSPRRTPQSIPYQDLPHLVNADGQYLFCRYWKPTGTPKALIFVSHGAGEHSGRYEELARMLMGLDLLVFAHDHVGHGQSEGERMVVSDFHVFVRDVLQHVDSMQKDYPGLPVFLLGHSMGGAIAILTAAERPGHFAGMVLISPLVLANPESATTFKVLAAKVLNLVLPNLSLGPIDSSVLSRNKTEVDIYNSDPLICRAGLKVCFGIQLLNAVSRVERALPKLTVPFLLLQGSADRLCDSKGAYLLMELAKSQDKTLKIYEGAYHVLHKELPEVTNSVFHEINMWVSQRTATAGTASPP
# Experiment: In vitro MGL activity assay: [glycerol-1,3-3H]-oleyl glycerol cleavage by MGL from HeLa cells
# Format: biochemical
# Details: 300 nM [Glycerol-1,3-3H]-oleyl glycerol, one hour
# Excerpt: MGL is the predominant hydrolase in HeLa cells/cell homogenates.
row,Structure (SMILES),IC50
1,"CC1c2nn(C34CC(C3)C4)c(-c3ccccc3)c2CCN1C(=O)c1cnn(C)c1C1CC1 (racemic) [Example 615, racemic-(2-(Bicyclo[1.1.1]pentan-1-yl)-7-methyl-3-phenyl-2,4,5,7-tetrahydro-6H-pyrazolo[3,4-c]pyridin-6-yl)(5-cyclopropyl-1-methyl-1H-pyrazol-4-yl)methanone]",821 nM
2,"C[C@H]1c2nn(C)c(-c3cc(F)c(F)c(F)c3)c2CCN1C(=O)c1cnc2ccncc2c1 [Example 488, [(7S)-2,7-Dimethyl-3-(3,4,5-trifluorophenyl)-5,7-dihydro-4H-pyrazolo[3,4-c]pyridin-6-yl]-(1,6-naphthyridin-3-yl)methanone]",227 nM
3,"C[C@H]1c2nn(C)c(-c3cc(F)cc4ccoc34)c2CCN1C(=O)c1ccc2ncccc2c1 [Example 536, [(7S)-3-(5-Fluorobenzofuran-7-yl)-2,7-dimethyl-5,7-dihydro-4H-pyrazolo[3,4-c]pyridin-6-yl]-(6-quinolyl)methanone]",20 nM
4,"C[C@H]1c2nn(C)c(-c3cc(F)c(F)c(F)c3)c2CCN1C(=O)c1n[nH]c2cc(F)ccc12 [Example 363, [(7S)-2,7-Dimethyl-3-(3,4,5-trifluorophenyl)-5,7-dihydro-4H-pyrazolo[3,4-c]pyridin-6-yl]-(6-fluoro-1H-indazol-3-yl)methanone]",44.1 nM

# The next lines start with the values.
row,IC50,Structure (SMILES)
1,15.6 nM,"C[C@H]1c2nn(C)c(-c3cc(F)c(F)c(F)c3)c2CCN1C(=O)c1cccc2c1CCCO2 [Example 581, Chroman-5-yl-[(7S)-2,7-dimethyl-3-(3,4,5-trifluorophenyl)-5,7-dihydro-4H-pyrazolo[3,4-c]pyridin-6-yl]methanone]"
2,44 nM,"Cc1cnn2cccc(C(=O)N3CCc4c(nn(C)c4-c4cc(F)c(F)c(F)c4)[C@@H]3C)c12 [Example 380, [(7S)-2,7-Dimethyl-3-(3,4,5-trifluorophenyl)-5,7-dihydro-4H-pyrazolo[3,4-c]pyridin-6-yl]-(3-methylpyrazolo[1,5-a]pyridin-4-yl)methanone]"
3,37.6 nM,"C[C@H]1c2nn(C)c(-c3cc(F)c(F)c(F)c3)c2CCN1C(=O)c1c[nH]c2cc(F)ccc12 [Example 358, [(7S)-2,7-Dimethyl-3-(3,4,5-trifluorophenyl)-5,7-dihydro-4H-pyrazolo[3,4-c]pyridin-6-yl]-(6-fluoro-1H-indol-3-yl)methanone]"
4,10.2 nM,"C[C@H]1c2nn(C)c(-c3cc(F)c(F)c(F)c3)c2CCN1C(=O)c1ccc2cnccc2c1 [Example 544, [(7S)-2,7-Dimethyl-3-(3,4,5-trifluorophenyl)-5,7-dihydro-4H-pyrazolo[3,4-c]pyridin-6-yl]-(6-isoquinolyl)methanone]"
5,226 nM,"C[C@H]1c2nn(C)c(-c3cc(F)c(F)c(F)c3)c2CCN1C(=O)c1cnc2ncccc2c1 [Example 490, [(7S)-2,7-Dimethyl-3-(3,4,5-trifluorophenyl)-5,7-dihydro-4H-pyrazolo[3,4-c]pyridin-6-yl]-(1,8-naphthyridin-3-yl)methanone]"
6,11.7 nM,"Cc1cccc2c(C(=O)N3CCc4c(nn(C)c4-c4cc(F)c(F)c(F)c4)[C@@H]3C)cnn12 [Example 386, [(7S)-2,7-Dimethyl-3-(3,4,5-trifluorophenyl)-5,7-dihydro-4H-pyrazolo[3,4-c]pyridin-6-yl]-(7-methylpyrazolo[1,5-a]pyridin-3-yl)methanone]"
7,80.7 nM,"C[C@H]1c2nn(C)c(-c3cc(F)c(F)c(F)c3)c2CCN1C(=O)c1ccc2nc(O)ccc2c1 [Example 517, [(7S)-2,7-Dimethyl-3-(3,4,5-trifluorophenyl)-5,7-dihydro-4H-pyrazolo[3,4-c]pyridin-6-yl]-(2-hydroxy-6-quinolyl)methanone]"

# Same assay, conditions: 300 nM [Glycerol-1,3-3H]-oleyl glycerol, one hour incubation
row,Structure (SMILES),IC50
1,"Cc1c(F)cc(-c2c3c(nn2C)[C@H](C)N(C(=O)c2ccc4nccnc4c2)CC3)cc1F [Example 190, (S)-(3-(3,5-Difluoro-4-methylphenyl)-2,7-dimethyl-2,4,5,7-tetrahydro-6H-pyrazolo[3,4-c]pyridin-6-yl)(quinoxalin-6-yl)methanone]",133 nM
2,"C[C@H]1c2nn(C)c(-c3cc(F)cc(F)c3)c2CCN1C(=O)c1ccc(F)c(OCCF)c1 [Example 144, (S)-(3-(3,5-Difluorophenyl)-2,7-dimethyl-2,4,5,7-tetrahydro-6H-pyrazolo[3,4-c]pyridin-6-yl)(4-fluoro-3-(2-fluoroethoxy)phenyl)methanone]",55 nM
3,"C[C@H]1c2nn(C)c(-c3cc(F)c(F)c(F)c3)c2CCN1C(=O)c1cnn2ccncc12 [Example 229, (S)-(2,7-Dimethyl-3-(3,4,5-trifluorophenyl)-2,4,5,7-tetrahydro-6H-pyrazolo[3,4-c]pyridin-6-yl)(pyrazolo[1,5-a]pyrazin-3-yl)methanone]",40.7 nM
4,"C[C@H]1c2nn(C)c(-c3cccc(Cl)c3)c2CCN1C(=O)c1ccc2[nH]c(=O)oc2c1 [Example 124, (S)-6-(3-(3-Chlorophenyl)-2,7-dimethyl-4,5,6,7-tetrahydro-2H-pyrazolo[3,4-c]pyridine-6-carbonyl)benzo[d]oxazol-2(3H)-one]",19.7 nM
5,"CC1c2nn(C)c(-c3cccc4c3ccn4C)c2CCN1C(=O)c1ccc2ncccc2c1 (stereo not shown) [Example 249, (2,7-Dimethyl-3-(1-methyl-1H-indol-4-yl)-2,4,5,7-tetrahydro-6H-pyrazolo[3,4-c]pyridin-6-yl)(quinolin-6-yl)methanone]",1530 nM
6,"Cn1nc2c(c1-c1cc(F)cc(F)c1)CCN(C(=O)c1ccc3ncccc3c1)C2 [Example 101, (3-(3,5-Difluorophenyl)-2-methyl-2,4,5,7-tetrahydro-6H-pyrazolo[3,4-c]pyridin-6-yl)(quinolin-6-yl)methanone]",52.4 nM
7,"Cn1nc2c(c1-c1ccc(C(F)(F)F)s1)CCN(C(=O)c1ccc3ncccc3c1)C2 [Example 103, (2-Methyl-3-(5-(trifluoromethyl)thiophen-2-yl)-2,4,5,7-tetrahydro-6H-pyrazolo[3,4-c]pyridin-6-yl)(quinolin-6-yl)methanone]",264 nM
8,"C[C@H]1c2nn(C)c(-c3cc(F)c(F)c(F)c3)c2CCN1C(=O)c1nn(C)c2ncccc12 [Example 230, (S)-(2,7-Dimethyl-3-(3,4,5-trifluorophenyl)-2,4,5,7-tetrahydro-6H-pyrazolo[3,4-c]pyridin-6-yl)(1-methyl-1H-pyrazolo[3,4-b]pyridin-3-yl)methanone]",23 nM
9,"CC(C)Oc1cncc(C(=O)N2CCc3c(nn(C)c3-c3cccc(Cl)c3)[C@@H]2C)c1 [Example 122, (S)-(3-(3-Chlorophenyl)-2,7-dimethyl-2,4,5,7-tetrahydro-6H-pyrazolo[3,4-c]pyridin-6-yl)(5-isopropoxypyridin-3-yl)methanone]",78.2 nM

# Results, then the molecule that gave them:
row,IC50,Structure (SMILES)
1,20.6 nM,"COc1nccc(C(=O)N2CCc3c(nn(C)c3-c3cc(F)c(F)c(F)c3)[C@@H]2C)c1C [Example 314, [(7S)-2,7-Dimethyl-3-(3,4,5-trifluorophenyl)-5,7-dihydro-4H-pyrazolo[3,4-c]pyridin-6-yl]-(2-methoxy-3-methyl-4-pyridyl)methanone]"
2,3.74 nM,"Cc1cc(C(=O)N2CCc3c(nn(C)c3-c3cc(F)c(F)c(F)c3)[C@@H]2C)c2ccccc2n1 [Example 239, (S)-(2,7-Dimethyl-3-(3,4,5-trifluorophenyl)-2,4,5,7-tetrahydro-6H-pyrazolo[3,4-c]pyridin-6-yl)(2-methylquinolin-4-yl)methanone]"
